Laboratory results: the supplement of paper PMC13380429

What was measured:
Settings in all cases: 72 h
Calu-3 [1] = assay: drug sensitivity score (DSS) for viability; higher = more toxic; extreme values may be limits of the assay
HepG2 [2] = assay: as above
Vero E6 [3] = assay: as above
Caco-2 [4] = assay: as above
Calu-3 [5] = assay: relative viability EC50 (midpoint between 100% and the lowest measured viability); higher = less toxic
HepG2 [6] = assay: as above
Vero E6 [7] = assay: as above
Caco-2 [8] = assay: as above
Calu-3 [9] = assay: cell viability relative to DMSO; higher = less toxic
HepG2 [10] = assay: as above
Vero E6 [11] = assay: as above
Caco-2 [12] = assay: as above
U2OS [13] = assay: drug sensitivity score (DSS) for viability; higher = more toxic; extreme values may be limits of the assay
U2OS [14] = assay: relative viability EC50 (midpoint between 100% and the lowest measured viability); higher = less toxic
U2OS [15] = assay: cell viability relative to DMSO; higher = less toxic

| SMILES | drug sensitivity score (Calu-3 [1]) | drug sensitivity score (HepG2 [2]) | drug sensitivity score (Vero E6 [3]) | drug sensitivity score (Caco-2 [4]) | relative viability EC50 (Calu-3 [5]) [µM] | relative viability EC50 (HepG2 [6]) [µM] | relative viability EC50 (Vero E6 [7]) [µM] | relative viability EC50 (Caco-2 [8]) [µM] | cell viability (Calu-3 [9]; 1 nM) [%] | cell viability (Calu-3 [9]; 10 nM) [%] | cell viability (Calu-3 [9]; 100 nM) [%] | cell viability (Calu-3 [9]; 1000 nM) [%] | cell viability (Calu-3 [9]; 10000 nM) [%] | cell viability (HepG2 [10]; 1 nM) [%] | cell viability (HepG2 [10]; 10 nM) [%] | cell viability (HepG2 [10]; 100 nM) [%] | cell viability (HepG2 [10]; 1000 nM) [%] | cell viability (HepG2 [10]; 10000 nM) [%] | cell viability (Vero E6 [11]; 1 nM) [%] | cell viability (Vero E6 [11]; 10 nM) [%] | cell viability (Vero E6 [11]; 100 nM) [%] | cell viability (Vero E6 [11]; 1000 nM) [%] | cell viability (Vero E6 [11]; 10000 nM) [%] | cell viability (Caco-2 [12]; 1 nM) [%] | cell viability (Caco-2 [12]; 10 nM) [%] | cell viability (Caco-2 [12]; 100 nM) [%] | cell viability (Caco-2 [12]; 1000 nM) [%] | cell viability (Caco-2 [12]; 10000 nM) [%] | drug sensitivity score (U2OS [13]) | relative viability EC50 (U2OS [14]) [µM] | cell viability (U2OS [15]; 1 nM) [%] | cell viability (U2OS [15]; 10 nM) [%] | cell viability (U2OS [15]; 100 nM) [%] | cell viability (U2OS [15]; 1000 nM) [%] | cell viability (U2OS [15]; 10000 nM) [%] |
| --- | --- | --- | --- | --- | --- | --- | --- | --- | --- | --- | --- | --- | --- | --- | --- | --- | --- | --- | --- | --- | --- | --- | --- | --- | --- | --- | --- | --- | --- | --- | --- | --- | --- | --- | --- |
| CCNC(=O)[C@H]1O[C@@H](n2cnc3c(N)ncnc32)[C@H](O)[C@@H]1O [NECA] | 0.6 | 0 | 0 | 0 | > 10 | > 10 | > 10 | > 10 | 106 | 102 | 94.9 | 88.5 | 92.8 | 94.8 | 102 | 107 | 105 | 105 | 100 | 105 | 96.1 | 101 | 94.4 | 102 | 97.6 | 110 | 111 | 110 |  |  |  |  |  |  |  |
| Cn1cc(-c2ccc3ncc(Cc4ccc5ncccc5c4)n3n2)cn1 [NVP-BVU972] | 0.5 | 13.6 | 0 | 1.2 | > 10 | 0.404 | > 10 | > 10 | 95.9 | 100 | 98.6 | 101 | 80.8 | 105 | 107 | 87.2 | 35.8 | 15.6 | 103 | 100 | 103 | 108 | 87.8 | 96.2 | 99.2 | 93.8 | 97.8 | 76.4 |  |  |  |  |  |  |  |
| Nc1ccc(-c2nc3ccc(-c4nc5ccc(N)cc5[nH]4)cc3[nH]2)cc1 [Ro-90-7501] | 0 | 4.5 | 0 | 0 | > 10 |  | > 10 | > 10 | 104 | 105 | 102 | 102 | 97 | 98.3 | 98.7 | 93.4 | 79.5 | 54.6 | 93.3 | 101 | 89.7 | 98.7 | 113 | 94 | 91.6 | 96.8 | 95.3 | 99.7 | 0 | > 10 | 105 | 94.5 | 100 | 98.5 | 100 |
| COC(=O)c1c(-c2cc(OC)c(OC)c(OC)c2)c2ccnc(OCc3ncccn3)c2c(=O)n1Cc1ccnc(C)c1 [T-0156] | 0 |  | 0 | 0 | > 10 |  | > 10 | > 10 | 87 | 96.4 | 90.2 | 98.5 | 101 |  |  |  |  |  | 96 | 94.4 | 102 | 105 | 109 | 96.4 | 93 | 89.6 | 99.9 | 103 | 0 | > 10 | 95.6 | 103 | 96.5 | 99.3 | 100 |
| NS(=O)(=O)c1cc2c(cc1C(F)(F)F)NC(Cc1ccccc1)NS2(=O)=O (stereo not given) [bendroflumethiazide] | 0 | 0 | 0 | 0 | > 10 | > 10 | > 10 | > 10 | 109 | 110 | 107 | 98.2 | 95.1 | 106 | 87.1 | 98.7 | 93.3 | 98.6 | 92.4 | 94.9 | 91.7 | 92.4 | 109 | 96.6 | 101 | 96.9 | 99.1 | 108 |  |  |  |  |  |  |  |
| Cc1cn([C@H]2O[C@@H](CO)[C@H](O)[C@H]2F)c(=O)[nH]c1=O [clevudine] | 0 | 0 |  | 0 | > 10 | > 10 |  | > 10 | 90.3 | 106 | 106 | 97.9 | 99.3 | 105 | 92.7 | 104 | 95.2 | 97.1 |  |  |  |  |  | 102 | 105 | 94.4 | 108 | 87.5 | 0 | > 10 | 92.4 | 102 | 101 | 98.2 | 97.2 |
| CN(C)CC(c1ccc(O)cc1)C1(O)CCCCC1 (stereo not given) [desvenlafaxine] | 0 |  | 0 | 0 | > 10 |  | > 10 | > 10 | 98.8 | 110 | 97.3 | 109 | 98.7 |  |  |  |  |  | 101 | 97.2 | 97.5 | 92.6 | 94.3 | 105 | 102 | 99.6 | 98.2 | 99.2 | 0 | > 10 | 99.1 | 99.7 | 96.5 | 97.5 | 94.2 |
| C=C(CC)C(=O)c1ccc(OCC(=O)O)c(Cl)c1Cl [etacrynic-acid] | 0 | 0.1 |  | 0 | > 10 | > 10 |  | > 10 | 90.3 | 94 | 97.5 | 90.5 | 106 | 99.4 | 110 | 105 | 100 | 86.2 |  |  |  |  |  | 93.4 | 100 | 96.2 | 84.9 | 97 | 0 | > 10 | 98.7 | 101 | 97.8 | 102 | 103 |
| Cc1cccc(C)c1NC(=O)c1ccccc1C(=O)O [ftaxilide] | 0 |  | 0 | 0 | > 10 |  | > 10 | > 10 | 103 | 106 | 98.6 | 122 | 106 |  |  |  |  |  | 107 | 102 | 99.8 | 96.3 | 100 | 94.5 | 100 | 102 | 99.8 | 104 | 0 | > 10 | 102 | 105 | 98.5 | 101 | 97.2 |
| COc1cccc(N2CCN(C3=Nc4c(F)cccc4[C@H](CC(=O)O)N3c3cc(C(F)(F)F)ccc3OC)CC2)c1 [letermovir] | 0 | 0 |  | 0.6 | > 10 | > 10 |  | > 10 | 99.6 | 96 | 93.9 | 101 | 113 | 102 | 86.2 | 94.3 | 99.1 | 90.6 |  |  |  |  |  | 97.4 | 103 | 103 | 97.9 | 83.1 | 0 | > 10 | 105 | 106 | 95.8 | 105 | 94.9 |
| NC(=O)c1ccc[n+]([C@@H]2O[C@H](COP(=O)([O-])OP(=O)(O)OC[C@H]3O[C@@H](n4cnc5c(N)ncnc54)[C@H](O)[C@@H]3O)[C@@H](O)[C@H]2O)c1 [nadide] | 0 | 0 |  | 0 | > 10 | > 10 |  | > 10 | 102 | 103 | 94 | 96.1 | 106 | 110 | 113 | 92.1 | 99.2 | 99.8 |  |  |  |  |  | 92.3 | 89.7 | 99.9 | 90.5 | 113 | 0 | > 10 | 101 | 95.9 | 97.9 | 101 | 111 |
| NCCC[C@H](N)C(=O)O [ornithine] | 0 | 0 |  | 0 | > 10 | > 10 |  | > 10 | 103 | 95.6 | 102 | 102 | 104 | 97.3 | 112 | 94.7 | 97.2 | 91.8 |  |  |  |  |  | 97.2 | 94.7 | 101 | 101 | 100 | 0 | > 10 | 100 | 93.5 | 99.1 | 96.8 | 104 |
| O=C(/C=C\n1cnc(-c2cc(C(F)(F)F)cc(C(F)(F)F)c2)n1)NNc1cnccn1 [selinexor] | 12.5 | 19.9 | 12.9 | 10.4 |  | 0.0686 | 0.319 | 0.248 | 104 | 93.4 | 66 | 57 | 56.4 | 108 | 99.2 | 49.6 | 31.9 | 24.5 | 98.9 | 102 | 81.9 | 42.4 | 24.3 | 97 | 87.9 | 89 | 50.4 | 44.2 | 18.8 | 0.189 | 97.1 | 89.9 | 75.8 | 12.7 | 7.6 |
| O=C(NS(=O)(=O)c1ccc(Br)s1)c1ccc(Cl)cc1Cl [tasisulam] | 0 | 0 |  | 0 | > 10 | > 10 |  | > 10 | 96.2 | 104 | 97.6 | 95.4 | 100 | 114 | 94.2 | 105 | 110 | 107 |  |  |  |  |  | 99.7 | 104 | 94.9 | 101 | 92 | 0 | > 10 | 97.2 | 98.1 | 96 | 101 | 102 |
| NCCCC[C@H](NC(=O)[C@@H]1CCCN1C(=O)[C@@H]1CSSC[C@H](NC(=O)CNC(=O)CNC(=O)CN)C(=O)N[C@@H](Cc2ccc(O)cc2)C(=O)N[C@@H](Cc2ccccc2)C(=O)N[C@@H](CCC(N)=O)C(=O)N[C@@H](CC(N)=O)C(=O)N1)C(=O)NCC(N)=O [terlipressin] | 0 | 0 | 0 | 0 | > 10 | > 10 | > 10 | > 10 | 93.9 | 92 | 102 | 95.8 | 96.4 | 94.4 | 105 | 94.3 | 97.4 | 110 | 93.7 | 100 | 86.1 | 91.2 | 110 | 100 | 96.5 | 98 | 100 | 103 |  |  |  |  |  |  |  |
| NCCNCCNCCN [trientine] | 0 | 0 |  | 0 | > 10 | > 10 |  | > 10 | 89 | 101 | 99 | 98.7 | 99.9 | 90.9 | 96.6 | 92.1 | 98 | 92.8 |  |  |  |  |  | 107 | 106 | 96.4 | 94.4 | 97.6 | 0 | > 10 | 100 | 99.1 | 100 | 97.5 | 104 |
